Data reported in US20260317298A1, “Cereblon Ligands and Uses Thereof” (REGENTS OF THE UNIVERSITY OF MICHIGAN, priority 2022, published 2026).
Counter-ions that a name gives are not always drawn.

What follows are compounds tested against CRBN/DDB1 (Homo sapiens, UniProt Q96SW2) (assay: biochemical).
Chain of CRBN/DDB1 (Q96SW2 whole entry): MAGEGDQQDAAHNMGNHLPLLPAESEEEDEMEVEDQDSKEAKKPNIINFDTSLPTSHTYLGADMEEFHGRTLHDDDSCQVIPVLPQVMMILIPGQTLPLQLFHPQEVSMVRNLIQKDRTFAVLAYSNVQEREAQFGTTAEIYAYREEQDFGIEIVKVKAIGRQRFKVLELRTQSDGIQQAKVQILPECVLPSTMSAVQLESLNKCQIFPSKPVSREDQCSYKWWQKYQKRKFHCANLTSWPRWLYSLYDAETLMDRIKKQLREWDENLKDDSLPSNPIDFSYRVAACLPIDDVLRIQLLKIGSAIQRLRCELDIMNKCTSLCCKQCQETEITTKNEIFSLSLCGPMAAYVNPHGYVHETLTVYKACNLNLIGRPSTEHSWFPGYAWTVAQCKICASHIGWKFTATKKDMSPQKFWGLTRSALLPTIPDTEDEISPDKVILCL
Chain of CRBN/DDB1 (Q16531 whole entry partner): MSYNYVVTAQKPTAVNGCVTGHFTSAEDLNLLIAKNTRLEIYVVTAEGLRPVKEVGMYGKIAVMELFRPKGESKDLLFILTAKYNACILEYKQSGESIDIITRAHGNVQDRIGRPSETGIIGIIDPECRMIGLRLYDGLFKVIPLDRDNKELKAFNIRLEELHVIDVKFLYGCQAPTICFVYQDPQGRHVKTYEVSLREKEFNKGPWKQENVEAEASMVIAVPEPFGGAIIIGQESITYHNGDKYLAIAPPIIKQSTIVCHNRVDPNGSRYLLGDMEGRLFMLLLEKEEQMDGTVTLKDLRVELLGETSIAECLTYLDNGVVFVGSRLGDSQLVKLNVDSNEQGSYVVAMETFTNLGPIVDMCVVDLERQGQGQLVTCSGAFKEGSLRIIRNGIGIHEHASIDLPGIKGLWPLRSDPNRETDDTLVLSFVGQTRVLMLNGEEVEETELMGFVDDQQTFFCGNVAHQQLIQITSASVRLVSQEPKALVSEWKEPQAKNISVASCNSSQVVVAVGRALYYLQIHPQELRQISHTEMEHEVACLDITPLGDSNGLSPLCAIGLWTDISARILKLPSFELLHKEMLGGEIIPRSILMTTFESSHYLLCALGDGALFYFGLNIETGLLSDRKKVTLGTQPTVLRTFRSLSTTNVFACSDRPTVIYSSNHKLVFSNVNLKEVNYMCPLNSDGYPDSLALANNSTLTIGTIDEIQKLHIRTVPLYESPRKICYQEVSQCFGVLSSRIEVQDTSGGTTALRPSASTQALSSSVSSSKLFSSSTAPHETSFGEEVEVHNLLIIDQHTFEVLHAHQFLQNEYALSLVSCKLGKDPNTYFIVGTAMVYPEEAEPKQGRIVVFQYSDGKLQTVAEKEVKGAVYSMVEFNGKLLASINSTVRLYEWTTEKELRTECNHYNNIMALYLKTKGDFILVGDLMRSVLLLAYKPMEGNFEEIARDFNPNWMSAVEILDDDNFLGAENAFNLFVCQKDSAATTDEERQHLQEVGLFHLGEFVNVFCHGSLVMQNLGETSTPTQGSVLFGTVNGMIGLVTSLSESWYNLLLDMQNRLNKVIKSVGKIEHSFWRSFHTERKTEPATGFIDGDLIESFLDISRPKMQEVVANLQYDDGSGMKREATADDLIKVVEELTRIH
Experimental: The CRBN−DDB1 binding potency of the present disclosure was determined using HTRF assay technology (Perkin Elmer). Compounds are serially diluted and are transferred multi-well plate. The reaction was conducted with addition of His tagged (e.g., CRBN+DDB-DLS7+CXU4) followed by addition of fluorescent probe (e.g., Cy5-labeled Thalidomide), and MAb Anti-6HIS Tb cryptate Gold in the assay buffer. After certain period of incubation at room temperature, the HTRF signals were read on a reader.
The binding potency was determined using HTRF assay technology (Perkin Elmer). Compounds were serially diluted in DMSO and 0.2 μL volume was transferred to white 384-well plate. […] After one hour incubation at room temperature, the HTRF signals were read on Envision reader (Perkin Elemer). Data was analyzed using XLfit using four parameters dose response curve to determine IC50s.

How did the IC50 turn out when O=C1CCC(Nc2ccc3c(c2)OCC32CCNCC2)C(=O)N1 (stereo in doubt) [Compound 11, (R)-3-((2H-spiro[benzofuran-3,4′-piperidin]-6-yl)amino)piperidine-2,6-dione] was run?
Its IC50 is 50 to 500 nM.

Which IC50 does the source give for Cc1cc([C@@]23CCNC[C@@H]2C3(F)F)ccc1N[C@@H]1CCC(=O)NC1=O [Compound 7, (R)-3-((4-((1R,6R)-7,7-difluoro-3-azabicyclo[4.1.0]heptan-6-yl)-2-methylphenyl)amino)piperidine-2,6-dione] here?
Its IC50 is > 5000 nM.

Which IC50 does the source give for O=C1CCC(Nc2ccc3c(c2)COC32CCNCC2)C(=O)N1 (centres unmarked) [Compound 15, 3-((3H-spiro[isobenzofuran-1,4′-piperidin]-5-yl)amino)piperidine-2,6-dione HCO2H salt] here?
The IC50 was 500 to 5000 nM.

For O=C1CCC(Nc2ccc3c(c2)OCC32CCNCC2(F)F)C(=O)N1 (centres unmarked) [Compound 16, 3-((3′,3′-difluoro-2H-spiro[benzofuran-3,4′-piperidin]-6-yl)amino)piperidine-2,6-dione], which IC50 is on record?
The IC50 was 500 to 5000 nM.

O=C1CC[C@H](Oc2ccc3c(c2)OCC32CCNCC2)C(=O)N1 [Compound 6, (S)-3-((2H-spiro[benzofuran-3,4′-piperidin]-6-yl)oxy)piperidine-2,6-dione] was tested. Which IC50 did it give?
Its IC50 is 500 to 5000 nM.

How did the IC50 turn out when Cc1cc([C@]23CCNC[C@H]2C3(F)F)ccc1N[C@@H]1CCC(=O)NC1=O [Compound 9, (R)-3-((4-((1S,6S)-7,7-difluoro-3-azabicyclo[4.1.0]heptan-6-yl)-2-methylphenyl)amino)piperidine-2,6-dione] was run?
Its IC50 is 500 to 5000 nM.

Which IC50 does the source give for O=C1CC[C@@H](Nc2ccc([C@]34CCNC[C@H]3C4(F)F)cc2)C(=O)N1 [Compound 3, (R)-3-((4-((1S,6S)-7,7-difluoro-3-azabicyclo[4.1.0]heptan-6-yl)phenyl)amino)piperidine-2,6-dione] here?
The IC50 was 500 to 5000 nM.

For O=C1CC[C@@H](Nc2ccc([C@@]34CCNC[C@@H]3C4(F)F)cc2)C(=O)N1 (single isomer, unassigned) [Compound 2], which IC50 is on record?
The IC50 was 500 to 5000 nM.

With O=C1CCC(Nc2cc(F)c3c(c2)OCC32CCNCC2)C(=O)N1 (centres unmarked) [Compound 19, 3-((4-fluoro-2H-spiro[benzofuran-3,4′-piperidin]-6-yl)amino)piperidine-2,6-dione HCl salt] as the compound, how does the IC50 read?
Its IC50 is 50 to 500 nM.

With Cc1cc([C@]23CCNC[C@H]2C3(F)F)ccc1N[C@H]1CCC(=O)NC1=O [Compound 10, (S)-3-((4-((1S,6S)-7,7-difluoro-3-azabicyclo[4.1.0]heptan-6-yl)-2-methylphenyl)amino)piperidine-2,6-dione] as the compound, how does the IC50 read?
The IC50 was > 5000 nM.

For Cc1cc([C@@]23CCNC[C@@H]2C3(F)F)ccc1N[C@H]1CCC(=O)NC1=O [Compound 8, (S)-3-((4-((1R,6R)-7,7-difluoro-3-azabicyclo[4.1.0]heptan-6-yl)-2-methylphenyl)amino)piperidine-2,6-dione], which IC50 is on record?
Its IC50 is 500 to 5000 nM.

For O=C1CCC2(CC1)COc1cc(NC3CCC(=O)NC3=O)ccc12 (centres unmarked) [Compound 17, 3-((4′-oxo-2H-spiro[benzofuran-3,1′-cyclohexan]-6-yl)amino)piperidine-2,6-dione], which IC50 is on record?
The IC50 was 500 to 5000 nM.

With O=C1CC[C@H](Nc2ccc([C@@]34CCNC[C@@H]3C4(F)F)cc2)C(=O)N1 (single isomer, unassigned) [Compound 1] as the compound, how does the IC50 read?
Its IC50 is 500 to 5000 nM.

O=C1CCC(Nc2ccc3c(c2)OCC32CCNCC2)C(=O)N1 (stereo in doubt) [Compound 12, (S)-3-((2H-spiro[benzofuran-3,4′-piperidin]-6-yl)amino)piperidine-2,6-dione] was tested. Which IC50 did it give?
Its IC50 is 500 to 5000 nM.

O=C1CCC(Nc2cc3c(cc2F)C2(CCNCC2)CO3)C(=O)N1 (centres unmarked) [Compound 18, 3-((5-fluoro-2H-spiro[benzofuran-3,4′-piperidin]-6-yl)amino)piperidine-2,6-dione HCl salt] was tested. Which IC50 did it give?
The IC50 was 500 to 5000 nM.

How did the IC50 turn out when O=C1CC[C@@H](Oc2ccc3c(c2)OCC32CCNCC2)C(=O)N1 [Compound 5, (R)-3-((2H-spiro[benzofuran-3,4′-piperidin]-6-yl)oxy)piperidine-2,6-dione] was run?
Its IC50 is 500 to 5000 nM.

Which IC50 does the source give for O=C1CC[C@H](Nc2ccc([C@]34CCNC[C@H]3C4(F)F)cc2)C(=O)N1 [Compound 4, (S)-3-((4-((1S,6S)-7,7-difluoro-3-azabicyclo[4.1.0]heptan-6-yl)phenyl)amino)piperidine-2,6-dione] here?
The IC50 was 500 to 5000 nM.
